Results reported in US20040132817A1, “Use of an histone deacetylase inhibitor for the treatment of diseases associated with an hpv infection” (priority 2001, published 2004).

Experiments:
cyclin A = experiment: Western blot of cyclin A in HeLa cells; type: cell-based, human; settings: 16 hours
Protocol: (§1) 50 μg of protein were separated on 12% SDS-PAGE minigels. After electrotransfer, the filters were incubated with antibodies against cyclin D1, cyclin E, cyclin A or cdk2, cdk4 or cdk6 specific antibodies. Equal protein loading was confirmed by reincubating the filters with a monoclonal actin antibody.
(§2) Cellular extracts were separated in 8-12% SDS PAGE gels and electrotransferred as described elsewhere (Finzer et al., Oncogene 19 (2000), 3235-3244; Soto et al., Oncogene 18 (1999), 3187-3198). The following antibodies were used: cyclin E (HE 12), cyclin D 1 (HD 11), cdk2 (M2), (D-12; Santa Cruz Biotechnology, Inc., Santa Cruz, USA), cdk4 (C-22), cdk6 (C-21), p27^KIP1 (C-19), (K25020), p45^SKP2 (N-19), HPV18-E7 (N-19) and E2F-1 (KH95) (Santa Cruz Biotechnology, Inc. Santa Cruz, USA), p21^CIP1 (C24420; Transduction Laboratories, Lexington, USA), pRB (NCL-RB; Novocastra, UK), p16^INK4 (15126E, Pharmingen, San Diego, USA) and HPV 16 E7 (ZYMED Lab. Inc., San Francisco, USA). Cyclin A was kindly provided by M. Pagano (Pagano et al., EMBO J. 11 (1992), 961-971). Equal protein transfer and loading was routinely checked by incubating the filters with a monoclonal actin antibody (ICN Biomedicals, Ohio, USA).
(§3) 50 μg of protein was separated on 12% SDS-PAGE minigels. […]

cyclin E = experiment: Western blot of cyclin E in HeLa cells; type: cell-based, human; settings: 16 hours
Protocol: as §1, §2, §3

p27^KIP1 = experiment: Western blot of p27^KIP1 in HeLa cells; type: cell-based, human; settings: 16 hours
Protocol: (A) Westem blot analysis. 50 μg of cellular protein were loaded on SDS-PAGE minigels. After electrotransfer, the filters were incubated with p21^CIP1, p27^KIP1, p16^INK4 and p45^SKP2. Equal protein loading was confirmed by a monoclonal actin antibody.
as §2
Western blot analysis. 50 μg of cellular protein was loaded on SDS-PAGE minigels. After electrotransfer, the filters were incubated with p21^CIP1, p27^KIP1, p16^INK4 and p45^SKP2. […]

cdk2 = experiment: Histone H1 kinase assay of cdk2 complexes immunoprecipitated from HeLa cells; type: cell-based, human; settings: for cdk2 kinase activity (histone H1): 16 hours; for cdk2 kinase activity, time course: 6 mM sodium butyrate, 3, 6, 9, 12 and 16 hours
Description: (A) Autoradiography. Cdk2 complexes were immunoprecipitated from HeLa cells and assayed for their activity using histone H1 as substrate. (“[…]”: preimmune serum).
(B) Cdk2 activity after NaB application. Upper panel: Cdk 2 complexes were immunoprecipitated and assayed for their activity using histone H1 as substrate. Lower panels: Western blot analysis of the cdk 2 complexes which were precipitated, separated in a 12% SDS-PAGE gel and immunoblotted with specific antibodies used in panel A. Loading was verified by incubation with cdk 2 antibodies.
For cell fractionation, cell monolayers were washed twice with PBS and harvested by trypsinisation. Cell extract preparation and cdk2 activity assays were exactly done as described by Blomberg and Hoffmann, Mol. Cell. Biol. 19 (1999), 6183-6194. In addition, cdk2 was immunoprecipitated and analyzed by immunoblotting. Beads used for cdk2 kinase assay were washed 3 times with lysis buffer (Blomberg and Hoffmann, 1999), incubated with Laemmli sample buffer and boiled for 5 min. Supernatant was analyzed by SDS-PAGE gels. Immunoblotting was carried out with the following antibodies: p21^CIP1 (C24420) and p27^KIP1 (K25020; Transduction Laboratories) or HPV18-E7 (N-19; Santa Cruz, Inc.). Cdk2 specific antibodies or preimmune serum were kindly provided by I. Hoffmann (DKFZ, Heidelberg).
Autoradiography. Cdk2 complexes were immunoprecipitated from HeLa cells and assayed for their activity using histone H1 as substrate. (“PI”: preimmune serum).
Autoradiography. Cdk2 complexes were immunoprecipitated from HeLa cells and assayed for their activity as in (c). […] (Contr.): untreated cells harvested after 3, 6, 9, 12, and 16 hours.

pRb = experiment: Western blot of pRb in HeLa cells; type: cell-based, human; settings: 16 hours
Protocol: (§4) (B and C) Western blot analysis. 50 μg of protein were separated in 8% (for pRb) and 12% SDS-PAGE gels. After electrotransfer, the filters were incubated with pRb, E2F-1 (B) and (C) p53 specific antibodies. Equal protein loading was confirmed with a monoclonal actin antibody.
as §2
(§5) Western blot analysis: 50 μg of protein was separated in 8% (for pRb) and 12% SDS-PAGE gels. After electrotransfer, the filters were incubated with pRb, E2F-1 (f) and (g) p53 specific antibodies. […]

E2F-1 = experiment: Western blot of E2F-1 in HeLa cells; type: cell-based, human; settings: 16 hours
Protocol: as §4, §2, §5

[1] = system: HPV16 E6/E7 transcription; experiment: Northern blot of HPV16 transcription in "1321" keratinocytes; type: cell-based
Protocol: Keratinocytes immortalized with HPV16 E6/E7 either under control of (A) the homologues viral upstream regulatory region (,1637″) or (B) of the β-actin promoter (,1321″) were incubated with NaB for various periods of time. 5 μg of RNA was separated in 1% agarose gels. The filters were hybridized with probes specific for HPV16, p21^CIP1 (=p21), β-actin and GAPDH. The positions of the 28S and 18S ribosomal RNA are indicated. (Contr.): untreated cells.
(A) 5 μg of RNA was separated in 1% agarose gels. The filters were hybridized with HPV 16, p21^CIP1 (=) p21 and GAPDH-specific probes. The positions of the 28S and 18S ribosomal RNA are indicated.
Total cellular RNA was extracted according to the guanidinium-thiocyanate procedure (Chomczynski and Sacchi, Anal. Biochem. 162 (1987), 156-159). Approximately 5 μg RNA were separated on 1% agarose gels in the presence of ethidium bromide under non-denaturing conditions and transferred to GeneScreen Plus membranes (DuPont, Bad Homburg, Deutschland). The filters were hybridized under stringent conditions with specific probes, which were labeled with ^32p-dCTP by random priming (Feinberg and Vogelstein, Anal. Biochem. 137 (1984), 266-267).

`CC(/C=C/C(=O)NO)=C\[C@@H](C)C(=O)c1ccc(N(C)C)cc1` [trichostatin A] was tested, and the “cyclin A protein level” value (cyclin A; 330 nM trichostatin A) was “Downregulates”, the “cyclin E protein level” value (cyclin E; 330 nM trichostatin A) was “Upregulates” and the “p27^KIP1 protein level” value (p27^KIP1; 330 nM trichostatin A) was “Upregulates”. For the same compound, the “cdk2 kinase activity (histone H1)” value (cdk2; 330 nM trichostatin A) was “Suppresses”, the pRb protein level (pRb; 330 nM trichostatin A) was “Mediates pRB Degradation” and the E2F-1 level (E2F-1; 330 nM trichostatin A) was “without Affecting”. For the same compound, the “divergent HPV16 regulation in "1637" and "1321" cells” value ([1]; TSA (data not shown)) was “Analogous results”.
`CCCC(=O)[O-].[Na+]` [sodium butyrate] was tested, and the “cyclin A protein level” value (cyclin A; 6 mM sodium butyrate) was “selectively downregulates”, the “cyclin E protein level” value (cyclin E; 6 mM sodium butyrate) was “strongly increased” and the “p27^KIP1 protein level” value (p27^KIP1; 6 mM sodium butyrate) was “significantly induced”. For the same compound, the “cdk2 kinase activity, time course” value (cdk2) was “still active after 9 hours, but abruptly declined 3 hours later”, the “cdk2 kinase activity, time course” value (cdk2; listed as NaB) was “remained active up to 9 hours, but immediately declined between 12-16 hours” and the “cdk2 kinase activity (histone H1)” value (cdk2; 6 mM sodium butyrate, vs untreated control) was “completely abolished”. For the same compound, the pRb protein level (pRb; 6 mM sodium butyrate) was “totally degraded”, the E2F-1 level (E2F-1; 6 mM sodium butyrate) was “no consequences on gene expression and translation” and the “HPV16 transcription, time course” value ([1]; "1321" cells, NaB, induced three hours after treatment) was “strong upregulation”. The “HPV mRNA after longer incubation” value ([1]; NaB, 16 hours) was “declined to basal levels”.
